Data: US20230183218A1, “CONDENSED SUBSTITUTED HYDROPYRROLES AS ANTAGONISTS OF THE MUSCARINIC ACETYLCHOLINE RECEPTOR M4” (Vanderbilt University, priority 2020, published 2023)

Legend:
Rat M4 = biological target: T1, Rat M4 (Rattus norvegicus, UniProt P08485); experiment: mAChR M4 cell-based functional assay (calcium flux, antagonist mode vs EC80 acetylcholine), rat M4/Gqi5/CHO-K1 cells; conditions: for remaining activity at 30 µM: CHO-K1, % ACh maximum at 30 μM, rat M4, read-out: Rat M4 Emin (%); for IC50: decrease of response elicited by EC80 acetylcholine, rat M4/Gqi5 CHO-K1 cells
T1 construct: expressed in transfected cells; host or cells: CHO-K1 (ATCC), stably co-expressing chimeric G protein Gqi5
T1 sequence (P08485 1-478): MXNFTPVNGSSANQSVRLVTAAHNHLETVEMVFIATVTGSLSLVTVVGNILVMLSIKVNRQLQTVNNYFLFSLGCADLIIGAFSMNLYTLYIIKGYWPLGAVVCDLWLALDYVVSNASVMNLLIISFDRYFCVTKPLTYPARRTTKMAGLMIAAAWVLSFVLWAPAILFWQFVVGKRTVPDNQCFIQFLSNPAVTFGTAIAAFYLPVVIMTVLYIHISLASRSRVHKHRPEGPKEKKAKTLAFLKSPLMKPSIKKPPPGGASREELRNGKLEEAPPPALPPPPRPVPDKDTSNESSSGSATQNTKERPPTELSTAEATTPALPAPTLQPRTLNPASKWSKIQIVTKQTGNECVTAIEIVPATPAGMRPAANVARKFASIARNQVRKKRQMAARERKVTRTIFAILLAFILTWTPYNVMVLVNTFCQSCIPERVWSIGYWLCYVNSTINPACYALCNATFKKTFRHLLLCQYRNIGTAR
Protocol: (§1) Human or rat M4 cDNA, along with the chimeric G protein Gqi5, were transfected into Chinese hamster ovary (CHO-K1) cells purchased from the American Type Culture Collection using Lipofectamine2000. M4/Gqi5/CHO cells were grown in Ham's F-12 medium containing 10% heat-inactivated fetal bovine serum (FBS), 20 mM HEPES, 500 μg/mL G418 sulfate, and 200 μg/mL Hygromycin B.
(§2) For high throughput measurement of agonist-evoked increases in intracellular calcium, CHO-K1 cells stably expressing muscarinic receptors were plated in growth medium lacking G418 and hygromycin at 15,000 cells/20 μL/well in Greiner 384-well black-walled, tissue culture (TC)-treated, clear-bottom plates (VWR). Cells were incubated overnight at 37° C. and 5% CO2. The next day, cells were washed using an ELX 405 (BioTek) with assay buffer; the final volume was then aspirated to 20 μL. Next, 20 μL of a 2.3 μM stock of Fluo-4/acetoxymethyl ester (Invitrogen, Carlsbad, Calif.), prepared as a 2.3 mM stock in DMSO and mixed in a 1:1 ratio with 10% (w/v) Pluronic F-127 and diluted in assay buffer, was added to the wells and the cell plates were incubated for 50 min at 37° C. and 5% CO2. Dye was removed by washing with the ELX 405 and the final volume was aspirated to 20 μL. Compound master plates were formatted in a 10 point concentration-response curve (CRC) format (1:3 dilutions) in 100% DMSO with a starting concentration of 10 or 1 mM using a BRAVO liquid handler (Agilent). Test compound CRCs were then transferred to daughter plates (240 nL) using the Echo acoustic plate reformatter (Labcyte, Sunnyvale, Calif.) and then diluted into assay buffer (40 μL) to a 2× stock using a Thermo Fisher Combi (Thermo Fisher Scientific, Waltham, Mass.).
(§3) Calcium flux was measured using the Functional Drug Screening System (FDSS) 6000 or 7000 (Hamamatsu Corporation, Tokyo, Japan) as an increase in the fluorescent static ratio. Compounds were applied to cells (20 μL, 2×) using the automated system of the FDSS at 2 seconds into the protocol and the data were collected at 1 Hz. At 143 s, 10 μL of an EC20 concentration of the muscarinic receptor agonist acetylcholine was added (5×), followed by the addition of 12 μL of an EC80 concentration of acetylcholine at the 268 s time point (5×). Agonist activity was analyzed as a concentration-dependent increase in calcium mobilization upon compound addition. Positive allosteric modulator activity was analyzed as a concentration-dependent increase in the EC20 acetylcholine response. Antagonist activity was analyzed as a concentration-dependent decrease in the EC80 acetylcholine response; for the purposes of the tables herein, an IC50 (inhibitory concentration 50) was calculated as a concentration-dependent decrease of the response elicited by an EC80 concentration of acetylcholine. Concentration-response curves were generated using a four-parameter logistical equation in XLFit curve fitting software (IDBS, Bridgewater, N.J.) for Excel (Microsoft, Redmond, Wash.) or Prism (GraphPad Software, Inc., San Diego, Calif.) or the Dotmatics software platform (Dotmatics, Bishop's Stortford, UK).
(§4) Compounds were synthesized as described above. Activity (IC50 and Emin) was determined in the mAChR M4 cell-based functional assay as described above and the data are shown in Table 2.

Human M4 = biological target: T2, Human M4 (Homo sapiens, UniProt P08173); experiment: mAChR M4 cell-based functional assay (calcium flux, antagonist mode vs EC80 acetylcholine), human M4/Gqi5/CHO-K1 cells; conditions: for remaining activity at 30 µM: CHO-K1, % ACh maximum at 30 μM, human M4, read-out: Human M4 Emin (%); for IC50: decrease of response elicited by EC80 acetylcholine, human M4/Gqi5 CHO-K1 cells
T2 construct: expressed in transfected cells; host or cells: CHO-K1 (ATCC), stably co-expressing chimeric G protein Gqi5
T2 sequence (P08173 1-479): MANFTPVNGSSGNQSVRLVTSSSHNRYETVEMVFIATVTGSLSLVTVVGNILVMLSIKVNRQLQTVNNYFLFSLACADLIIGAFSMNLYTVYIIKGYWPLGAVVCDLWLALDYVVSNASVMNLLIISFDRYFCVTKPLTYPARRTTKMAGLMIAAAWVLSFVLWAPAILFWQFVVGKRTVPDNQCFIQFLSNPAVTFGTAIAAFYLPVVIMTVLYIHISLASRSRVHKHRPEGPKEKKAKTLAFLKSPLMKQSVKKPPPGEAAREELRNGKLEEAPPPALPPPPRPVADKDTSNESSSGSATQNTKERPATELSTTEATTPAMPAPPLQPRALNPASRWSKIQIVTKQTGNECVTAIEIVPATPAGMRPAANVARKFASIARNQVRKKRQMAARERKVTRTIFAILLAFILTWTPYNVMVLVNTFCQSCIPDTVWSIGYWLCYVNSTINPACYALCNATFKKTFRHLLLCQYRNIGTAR
Protocol: as §1, §2, §3, §4

remaining activity at 30 µM (Rat M4) | IC50 (Rat M4) | remaining activity at 30 µM (Human M4) | IC50 (Human M4) | SMILES
8% | 0.113 µM | 5% | 0.0572 µM | [O-][S+](c1ccccc1)c1ccc(N[C@H]2C[C@@H]3CN(CC4CCOCC4)C[C@@H]3C2)nn1 (stereo partly drawn) [compound 28, (3aR,5s,6aS)-N-(6-(phenylsulfinyl)pyridazin-3-yl)-2-((tetrahydro-2H-pyran-4-yl)methyl)octahydrocyclopenta[c]pyrrol-5-amine]
4% | 0.196 µM | 4% | 0.0078 µM | [O-][S+](c1ccccc1)c1ccc(N[C@H]2C[C@@H]3CN(Cc4ccc5c(c4)OCO5)C[C@@H]3C2)nn1 (stereo partly drawn) [compound 30, (3aR,5s,6aS)-2-(benzo[d][1,3]dioxol-5-ylmethyl)-N-(6-(phenylsulfinyl)pyridazin-3-yl)octahydrocyclopenta[c]pyrrol-5-amine]
3% | 1.16 µM | 4% | 0.518 µM | Cc1cc(CN2C[C@H]3C[C@H](Nc4ccc(S(=O)(=O)c5ccccc5)nn4)C[C@H]3C2)ccc1F [compound 31, (3aR,5s,6aS)-2-(4-fluoro-3-methylbenzyl)-N-(6-(phenylsulfonyl)pyridazin-3-yl)octahydrocyclopenta[c]pyrrol-5-amine]
3% | 0.97 µM | 3% | 0.242 µM | Cc1cc(CN2C[C@H]3C[C@H](Nc4ccc([S+]([O-])c5ccccc5)nn4)C[C@H]3C2)ccc1F (stereo partly drawn) [compound 32, (3aR,5s,6aS)-2-(4-fluoro-3-methylbenzyl)-N-(6-(phenylsulfinyl)pyridazin-3-yl)octahydrocyclopenta[c]pyrrol-5-amine]
14% | 4.46 µM | 5% | 0.105 µM | O=S(=O)(c1ccc(N[C@H]2C[C@@H]3CN(Cc4ccccn4)C[C@@H]3C2)nn1)C1CCCCC1 [compound 33, (3aR,5s,6aS)-N-(6-(cyclohexylsulfonyl)pyridazin-3-yl)-2-(pyridin-2-ylmethyl)octahydrocyclopenta[c]pyrrol-5-amine]
5% | 0.119 µM | 4% | 0.00775 µM | O=S(=O)(c1ccc(N[C@H]2C[C@@H]3CN(CC4CCOCC4)C[C@@H]3C2)nn1)C1CCCCC1 [compound 34, (3aR,5s,6aS)-N-(6-(cyclohexylsulfonyl)pyridazin-3-yl)-2-((tetrahydro-2H-pyran-4-yl)methyl)octahydrocyclopenta[c]pyrrol-5-amine]
19% | 4.81 µM | 6% | 0.181 µM | Cc1cc(CN2C[C@H]3C[C@H](Nc4ccc(S(=O)(=O)C5CCCCC5)nn4)C[C@H]3C2)nn1C [compound 35, (3aR,5s,6aS)-N-(6-(cyclohexylsulfonyl)pyridazin-3-yl)-2-((1,5-dimethyl-1H-pyrazol-3-yl)methyl)octahydrocyclopenta[c]pyrrol-5-amine]
7% | 0.46 µM | 5% | 0.0515 µM | CC1(C)CC(N2C[C@H]3C[C@H](Nc4ccc(S(=O)(=O)C5CCCCC5)nn4)C[C@H]3C2)CCO1 (stereo partly drawn) [compound 36, (3aR,5s,6aS)-N-(6-(cyclohexylsulfonyl)pyridazin-3-yl)-2-(2,2-dimethyltetrahydro-2H-pyran-4-yl)octahydrocyclopenta[c]pyrrol-5-amine]
4% | 0.16 µM | 4% | 0.00384 µM | O=S(=O)(c1ccc(N[C@H]2C[C@@H]3CN(Cc4ccc5c(c4)OCO5)C[C@@H]3C2)nn1)C1CCCCC1 [compound 37, (3aR,5s,6aS)-2-(benzo[d][1,3]dioxol-5-ylmethyl)-N-(6-(cyclohexylsulfonyl)pyridazin-3-yl)octahydrocyclopenta[c]pyrrol-5-amine]
3% | 0.591 µM | 4% | 0.188 µM | Cc1cc(CN2C[C@H]3C[C@H](Nc4ccc(S(=O)(=O)C5CCCCC5)nn4)C[C@H]3C2)ccc1F [compound 38, (3aR,5s,6aS)-N-(6-(cyclohexylsulfonyl)pyridazin-3-yl)-2-(4-fluoro-3-methylbenzyl)octahydrocyclopenta[c]pyrrol-5-amine]
4% | 0.288 µM | 4% | 0.0707 µM | O=S(=O)(c1ccccc1)c1nnc(N[C@H]2C[C@@H]3CN(CC4CCOCC4)C[C@@H]3C2)cc1NC1CC1 [compound 39, N^5-cyclopropyl-6-(phenylsulfonyl)-N^3-((3aR,5s,6aS)-2-((tetrahydro-2H-pyran-4-yl)methyl)octahydrocyclopenta[c]pyrrol-5-yl)pyridazine-3,5-diamine]
15% | 2.89 µM | 5% | 0.221 µM | Cc1cccnc1CN1C[C@H]2C[C@H](Nc3ccc(S(=O)(=O)c4ccccc4)nn3)C[C@H]2C1 [compound 40, (3aR,5s,6aS)-2-((3-methylpyridin-2-yl)methyl)-N-(6-(phenylsulfonyl)pyridazin-3-yl)octahydrocyclopenta[c]pyrrol-5-amine]
20% | 5.78 µM | 6% | 0.742 µM | O=S(=O)(c1ccccc1)c1ccc(N[C@H]2C[C@@H]3CN(Cc4ncccc4C(F)(F)F)C[C@@H]3C2)nn1 [compound 41, (3aR,5s,6aS)-N-(6-(phenylsulfonyl)pyridazin-3-yl)-2-((3-(trifluoromethyl)pyridin-2-yl)methyl)octahydrocyclopenta[c]pyrrol-5-amine]
14% | 3.11 µM | 3% | 1 µM | Cc1cc2c(cc1CN1C[C@H]3C[C@H](Nc4ccc(S(=O)(=O)c5ccccc5)nn4)C[C@H]3C1)OCO2 [compound 42, (3aR,5s,6aS)-2-((6-methylbenzo[d][1,3]dioxol-5-yl)methyl)-N-(6-(phenylsulfonyl)pyridazin-3-yl)octahydrocyclopenta[c]pyrrol-5-amine]
